Key:
Ras farnesyl transferase [1] = target: T1, Ras farnesyl transferase (Rattus norvegicus, UniProt Q02293+Q04631); assay: In vivo (intracellular) Ras farnesylation inhibition in Rat2 cell line transformed with H-Ras fused with polybasic lysine domain of K-Ras; assay type: cell-based; settings: Rat2 cells transformed with H-Ras/K-Ras polybasic domain fused protein; concentration inhibiting 50% of farnesyl binding; read-out: K-Ras CIC50
T1 construct: endogenous in cells; host or cells: Rat2 fibroblasts transformed with C-Harvey-Ras or with the H-Ras/K-Ras polybasic-domain fusion
Description: (§1) In the present experiment, Rat2 cell line which expresses C-Harvey-Ras protein having transforming activity and Rat2 cell line(Korean patent application No. 97-14409) which is transformed with fused protein of H-Ras substituted with polybasic lysine domain at C-terminus of K-Ras were used. The experiment was performed by the modified Declue's method(Declue. J. E. et al., Cancer Research, 51, 712, 1991) as follows.
(§2) 3×10^5 cells of transformed Rat2 fibroblast cell line were sprayed on 60 mm cell cultivation dish and cultivated for 48 hours in a cell incubator at 37° C. and after 50% or more of density was reached, it was treated with the test compounds. The compound according to the present invention dissolved in dimethylsulfoxide(DMSO) was used. 1% concentration of dimethylsulfoxide was used in both control and test groups. After 4 hours from the treatment with the compound, methionine labeled with 150 μCi of radioactive isotope [^35S] per 1 ml of medium was added and after cultivating for 20 hours, the cells were washed with physiological saline water. The cells were lysed using 1 ml of cold cell lysis buffer solution(50 mM of Sodium HEPES buffer solution containing 5 mM of magnesium chloride, 1 mM of DTT, 1% NP 40, 1 mM of EDTA, 1 mM of PMSF, 2 μM of leupeptin, 2 μM of pepstatin A and 2 μM of antipain) and the supernatant wherein the cells were lysed was obtained by high-velocity centrifugation of 12,000 g×5 minutes. The amount of radioisotope in the supernatant was measured and standardized to obtain a quantitative result in immunoprecipitation reaction and then, Y13-259, a monoclonal antiboby specifically binding to Ras protein(see: Furth, M. E. et al., J. Virol, 43, 294, 1982) was added and reacted for 15 hours at 4° C. Protein A(combined with goat anti-murine immunoglobulin antibody)-agarose suspension was added to the solution and reacted for 1 hour at 4° C. and then, to remove the unspecific binding product, immunoprecipitates were washed with a buffer solution (50 mM Tris chloride buffer solution containing 50 mM of sodium chloride, 0.5% of sodium dioxycholate, 0.5% of NP 40 and 0.1% of SDS). The precipitates were added to a buffer solution for electrophoresis and boiled and then, electrophoresis was performed using 13.5% of SDS polyacrylamide gel. After electrophoresis, the gel was fixed and dried. Then, the gel was exposed to X-ray film, developed and printed. From the result of the experiment, intensities of band of protein combined with or without farnesyl of Ras protein was measured, and the concentration of the test compound inhibiting 50% of farnesyl binding was defined as CIC50, an in vivo Ras farnesyl transferase inhibitory activity. IC50 means the data from Experimental 1 and CIC50 means the data from Experimental 2.

Ras farnesyl transferase [2] = target: T1, Ras farnesyl transferase; assay: In vivo (intracellular) Ras farnesylation inhibition in Rat2 cell line expressing C-Harvey-Ras; assay type: cell-based; settings: Rat2 cells expressing C-Harvey-Ras; concentration inhibiting 50% of farnesyl binding; read-out: H-Ras CIC50
Description: as §1, §2

Ras farnesyl transferase [3] = target: T2, Ras farnesyl transferase (Homo sapiens, UniProt P49354+P49356); assay: Ras farnesyl transferase enzyme inhibition, H-Ras substrate; assay type: biochemical; settings: H-Ras substrate protein; recombinant farnesyl transferase; 30 minutes at 37° C.
T2 construct: made in house
Excerpt: (§3) In the present experiment, the improved Pompliano's method (see: Pompliano et al., Biochemistry, 31, 3800, 1992) was applied. Specifically, Ras farnesyl transferase produced by genetic recombination techniques was used, and fused protein of H-Ras(H-Ras-CVLS) substituted with polybasic lysine domain at C-terminus of K-Ras (see: Korean Patent Appln. No. 97-14409) was used as a substrate after it had been purified according to the known method(see, Chung et al., Biochimica et Biophysica Acta, 1129, 278, 1992).
(§4) The enzyme reaction was performed in 50 μl of 50 mM Sodium HEPES buffer solution containing 25 mM of potassium chloride, 25 mM of magnesium chloride, 10 mM of DTT and 50 μM of zinc chloride. 1.5 μM of Ras substrate protein, 0.15 μM of tritium-farnesylpyrophosphate and 4.5 nM of farnesyl transferase were used. More specifically, in the initial step, farnesyl transferase was added to the above buffer solution, reaction was maintained for 30 minutes at 37° C. and then the reaction was stopped by adding 1 ml of ethanol solution containing 1M HCl. The formed precipitates were adsorbed to GF/B filter using Hopper harvestor(Hopper #FH 225V) for filter-binding, washed with ethanol, and then radioactivity of the dried filter was measured using LKB β counter. Enzyme titer was measured in the unsaturated state of substrate where the concentration of Ras substrate protein and farnesyl transferase have quantitative relationship. The compound according to the present invention dissolved in dimethyl sulfoxide(DMSO) was added to the reaction solution in an amount of less than 5% of the total reaction solution, and then the enzyme inhibitory activity thereof was measured. The enzyme inhibitory activity was represented by percentage of the amount of farnesyl incorporated into the Ras substrate protein in the presence of the test compound to that in the absence of the test compound. IC50 of the test compound was defined as the concentration at which 50% of the enzyme activity was inhibited. To evaluate the selective enzyme inhibitory activity of the compound according to the present invention, inhibitory activity on geranylgeranyl transferase was measured. Geranylgeranyl transferase was purified from bovine brain according to the modified Schaber's method(Schaber et al., J. Biol. Chem. 265, 14701, 1990), and substantially the same experimental procedure as that for farnesyl transferase was performed on geranylgeranyl pyrophosphate and Ras-CVIL substrate protein.

Ras farnesyl transferase [4] = target: T2, Ras farnesyl transferase; assay: Ras farnesyl transferase enzyme inhibition, K-Ras substrate (H-Ras fused with polybasic lysine domain of K-Ras); assay type: biochemical; settings: K-Ras substrate (fused protein of H-Ras with polybasic lysine domain of K-Ras); recombinant farnesyl transferase
Excerpt: as §3, §4

Molecule	IC50 (Ras farnesyl transferase [1]) [nM]	IC50 (Ras farnesyl transferase [2]) [nM]	IC50 (Ras farnesyl transferase [3]) [nM]	IC50 (Ras farnesyl transferase [4]) [nM]
1-[1-(3-benzyloxypropyl)-2-methyl-1H-imidazol-5-ylmethyl]-3-[N-(2-methoxyethyl)-N-methyl]carbamoyl-4-(naphthalen-1-yl)-1H-pyrrole [Example 34]	> 10000	> 12.5	< 4	< 4.7
COCCN(C)C(=O)c1cn(Cc2cncn2CCCOCc2ccccc2)cc1-c1cccc2ccccc12 [Example 1, 1-[1-(3-benzyloxypropyl)-1H-imidazol-5-yl]methyl-3-[N-(2-methoxyethyl)-N-methyl]carbamoyl-4-(naphthalen-1-yl)-1H-pyrrole]	10000 to 50000	< 25	< 10	< 10
O=C(c1cn(Cc2cncn2CCCOCc2ccccc2)cc1-c1cccc2ccccc12)N1CCOCC1 [Example 2, 1-[1-(3-benzyloxypropyl)-1H-imidazol-5-yl]methyl-3-(morpholin-4-yl)carbonyl-4-(naphthalen-1-yl)-1H-pyrrole]	10000 to 50000	< 25	< 10	< 10
CN1CCN(C(=O)c2cn(Cc3cncn3CCCOCc3ccccc3)cc2-c2cccc3ccccc23)CC1 [Example 3, 1-[1-(3-benzyloxypropyl)-1H-imidazol-5-yl]methyl-3-(4-methylpiperazin-1-yl)carbonyl-4-(naphthalen-1-yl)-1H-pyrrole]	10000 to 50000	< 25	< 10	< 10
COCCN(C)C(=O)c1cn(Cc2cncn2CCCOc2ccccc2)cc1-c1cccc2ccccc12 [Example 4, 3-[N-(2-methoxyethyl)-N-methyl]carbamoyl-4-(naphthalen-1-yl)-1-[1-(3-phenoxypropyl)-1H-imidazol-5-yl]methyl-1H-pyrrole]	10000 to 100000	< 25	< 10	< 10
COCCN(C)C(=O)c1cn(Cc2cncn2CCCSc2ccccc2)cc1-c1cccc2ccccc12 [Example 5, 3-[N-(2-methoxyethyl)-N-methyl]carbamoyl-4-(naphthalen-1-yl)-1-[1-(3-thiophenoxypropyl)-1H-imidazol-5-yl]methyl-1H-pyrrole]	10000 to 50000	< 25	< 10	< 10
O=C(c1cn(Cc2cncn2CCCOc2ccccc2)cc1-c1cccc2ccccc12)N1CCOCC1 [Example 6, 3-(morpholin-4-yl)carbonyl-4-(naphthalen-1-yl)-1-[1-(3-phenoxypropyl)-1H-imidazol-5-yl]methyl-1H-pyrrole]	10000 to 50000	< 25	< 10	< 10
CN1CCN(C(=O)c2cn(Cc3cncn3CCCOc3ccccc3)cc2-c2cccc3ccccc23)CC1 [Example 7, 3-(4-methylpiperazin-1-yl)carbonyl-4-(naphthalen-1-yl)-1-[1-(3-phenoxypropyl)-1H-imidazol-5-yl]methyl-1H-pyrrole]	10000 to 50000	< 25	< 10	< 10
CCSCCCn1cncc1Cn1cc(C(=O)N(C)CCOC)c(-c2cccc3ccccc23)c1 [Example 8, 3-[N-(2-methoxyethyl)-N-methyl]carbamoyl-4-(naphthalen-1-yl)-1-[1-(3-thioethoxypropyl)-1H-imidazol-5-yl]methyl-1H-pyrrole]	10000 to 50000	> 25	< 10	< 10
COCCN(C)C(=O)c1cn(Cc2cncn2CCCN2CCOCC2)cc1-c1cccc2ccccc12 [Example 9, 3-[N-(2-methoxyethyl)-N-methyl]carbamoyl-1-{1-[3-(morpholin-4-yl)propyl]-1H-imidazol-5-yl}methyl-4-(naphthalen-1-yl)-1H-pyrrole]	10000 to 50000	< 25	< 10	< 10
COCCN(C)C(=O)c1cn(Cc2cncn2CCc2cccs2)cc1-c1cccc2ccccc12 [Example 10, 3-[N-(2-methoxyethyl)-N-methyl]carbamoyl-4-(naphthalen-1-yl)-1-{1-[2-(thiophen-2-yl)ethyl]-1H-imidazol-5-yl}methyl-1H-pyrrole]	10000 to 50000	> 25	< 10	< 100
CN1CCN(C(=O)c2cn(Cc3cncn3CCc3cccs3)cc2-c2cccc3ccccc23)CC1 [Example 11, 3-(4-methylpiperazin-1-yl)carbonyl-4-(naphthalen-1-yl)-1-{1-[2-(thiophen-2-yl)ethyl]-1H-imidazol-5-yl}methyl-1H-pyrrole]	10000 to 50000	> 25	< 10	< 100
CN1CCN(C(=O)c2cn(Cc3cncn3Cc3ccco3)cc2-c2cccc3ccccc23)CC1 [Example 12, 1-[1-(furan-2-yl)methyl-1H-imidazol-5-yl]methyl-3-(4-methylpiperazin-1-yl)carbonyl-4-(naphthalen-1-yl)-1H-pyrrole]	10000 to 50000	> 25	< 10	< 100
COCCN(C)C(=O)c1cn(Cc2cncn2C2CCN(Cc3ccccc3)CC2)cc1-c1cccc2ccccc12 [Example 13, 1-[1-(1-benzylpiperidin-4-yl)-1H-imidazol-5-yl]methyl-3-[N-(2-methoxyethyl)-N-methyl]carbamoyl-4-(naphthalen-1-yl)-1H-pyrrole]	10000 to 50000	< 25	< 10	< 10
O=C(c1cn(Cc2cncn2C2CCN(Cc3ccccc3)CC2)cc1-c1cccc2ccccc12)N1CCOCC1 [Example 14, 1-[1-(1-benzylpiperidin-4-yl)-1H-imidazol-5-yl]methyl-3-(morpholin-4-yl)carbonyl-4-(naphthalen-1-yl)-1H-pyrrole]	10000 to 50000	< 25	< 10	< 10
Cc1ncc(Cn2cc(C(=O)N3CCN(C)CC3)c(-c3cccc4ccccc34)c2)n1Cc1ccc2c(c1)OCO2 [Example 15, 1-[2-methyl-1-(3,4-methylenedioxybenzyl)-1H-imidazol-5-ylmethyl]-3-(4-methylpiperazin-1-yl)carbonyl-4-(naphthalen-1-yl)-1H-pyrrole]	> 10000	> 25	< 6	< 13

Source: US6511978B1, “Pyrrole derivatives useful for farnesyl transferase inhibitors and their preparations” (LG Life Sciences, Ltd., priority 1999, dated 2003)
